In patent publication US20210363152A1, “AMINOAZINE AMIDES” (Hoffmann-La Roche Inc., priority 2018, published 2021):

The molecules below were run against T1, Autotaxin enzyme (ATX) (Homo sapiens, UniProt Q13822) (assay: In vitro ATX assay (enzymatic ATX inhibition, LPC 14:0 substrate, choline oxidase/HRP absorbance readout)). Conditions: 0.3 mM LPC 14:0, 37° C., 4 hours, absorbance 555 nm.
T1 construct: purchased Echelon Biosciences, Inc. E-4000
Assay type: biochemical
Outline: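 Human ATX (10 ng/mL as added) in pH 9.0 Tris buffer with NaCl, MgCl2, CoCl2 and Triton X-100 was preincubated with compound for 15 min at 37 °C. LPC 14:0 (0.3 mM final) was then hydrolysed for 4 h at 37 °C. Released choline was detected by choline oxidase/HRP with 4-AAP/TOOS, read after 15 min RT as absorbance at 555 nm, giving banded IC50 values.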
Molecule `O=C(c1cnc(NCc2cc(OC(F)(F)F)cc(C3CC3)c2)nc1)N1CC2(CCS2(=O)=O)C1` [Example 102, (2-((3-cyclopropyl-5-(trifluoromethoxy)benzyl)ami-no)pyrimidin-5-yl)(1,1-dioxido-1-thia-6-azaspiro[3.3]heptan-6-y)methanone] has an IC50 of 100 to 1000 nM.
`COC[C@H]1CCN1C(=O)c1cnc(NCc2cc(OC(F)(F)F)cc(C3CC3)c2)nc1` [Example 103, (R)-(2-((3-cyclopropyl-5-(trifluoromethoxy)benzyl)ami-no)pyrimidin-5-yl)(2-(methoxymethyl)azetidin-1-yl)methanone] was tested, and the IC50 was < 100 nM.
`COC[C@@H]1CCN1C(=O)c1cnc(NCc2cc(OC(F)(F)F)cc(C3CC3)c2)nc1` [Example 104, (S)-(2-((3-cyclopropyl-5-(trifluoromethoxy)benzyl)ami-no)pyrimidin-5-yl)(2-(methoxymethyl)azetidin-1-yl)methanone] was tested, and the IC50 was < 100 nM.
Work on `O=C(c1cnc(NCc2cc(OC(F)(F)F)cc(C3CC3)c2)nc1)N1CC2(CCO2)C1` [Example 105, (2-((3-cyclopropyl-5-(trifluoromethoxy)benzyl)ami-no)pyrimidin-5-yl)(1-oxa-6-azaspiro[3.3]heptan-6-yl)methanone] yielded an IC50 of 100 to 1000 nM.
Work on `O=C(c1cnc(NCc2cc(OC(F)(F)F)cc(C3CC3)c2)nc1)N1CC2(C1)CS(=O)(=O)C2` [Example 106, (2-((3-cyclopropyl-5-(trifluoromethoxy)benzyl)ami-no)pyrimidin-5-yl)(2,2-dioxido-2-thia-6-azaspiro[3.3]heptan-6-yl)methanone] yielded an IC50 of 100 to 1000 nM.
For `O=C(c1cnc(NCc2cc(OC(F)(F)F)cc(C3CC3)c2)nc1)N1CCC12CS(=O)(=O)C2` [Example 107, (2-((3-cyclopropyl-5-(trifluoromethoxy)benzyl)ami-no)pyrimidin-5-yl)(6,6-dioxido-6-thia-1-azaspiro[3.3]heptan-1-yl)-methanone], the IC50 was < 100 nM.
`O=C(c1cnc(NCc2cc(OC(F)(F)F)cc(C3CC3)c2)nc1)N1CCC12CCCOC2` (stereo not shown) [Example 108, (2-((3-cyclopropyl-5-(trifluoromethoxy)benzyl)ami-no)pyrimidin-5-yl)(6-oxa-1-azaspiro[3.5]nonan-1-yl)-methanone] was tested, and the IC50 was < 100 nM.
For `COC1CN(C(=O)c2cnc(NCc3cc(OC(F)(F)F)cc(C4CC4)c3)nc2)C1` [Example 109, (2-((3-cyclopropyl-5-(trifluoromethoxy)benzyl)ami-no)pyrimidin-5-yl)(3-methoxyazetidin-1-yl)-methanone], the IC50 was < 100 nM.
`CN(C)C1CN(C(=O)c2cnc(NCc3cc(OC(F)(F)F)cc(C4CC4)c3)nc2)C1` [Example 110, (2-((3-cyclopropyl-5-(trifluoromethoxy)benzyl)ami-no)pyrimidin-5-yl)(3-(dimethylamino)azetidin-1-yl)methanone] was tested, and the IC50 was 100 to 1000 nM.
In the case of `O=C(c1cnc(NCc2cc(OC(F)(F)F)cc(C3CC3)c2)nc1)N1CCC2COCC21` (stereo not shown) [Example 111, (2-((3-cyclopropyl-5-(trifluoromethoxy)benzyl)ami-no)pyrimidin-5-yl)(hexahydro-1H-furo[3,4-b]pyrrol-1-yl)methanone], the IC50 is reported as < 100 nM.
In the case of `CN1CCC2(CC1)CCN2C(=O)c1cnc(NCc2cc(OC(F)(F)F)cc(C3CC3)c2)nc1` [Example 112, (2-((3-cyclopropyl-5-(trifluoromethoxy)benzyl)ami-no)pyrimidin-5-yl)(7-methyl-1,7-diazaspiro[3.5]nonan-1-yl)methanone], the IC50 is reported as < 100 nM.
With `O=C(c1cnc(NCc2cc(OC(F)(F)F)cc(C3CC3)c2)nc1)N1CCC1C(F)F` (stereo not shown) [Example 113, (2-((3-cyclopropyl-5-(trifluoromethoxy)benzyl)ami-no)pyrimidin-5-yl)(2-(difluoromethyl)azetidin-1-yl)methanone] the IC50 was < 100 nM.
In the case of `O=C(c1cnc(NCc2cc(OC(F)(F)F)cc(C3CC3)c2)nc1)N1CCC1C(F)(F)F` (stereo not shown) [Example 114, (2-((3-cyclopropyl-5-(trifluoromethoxy)benzyl)ami-no)pyrimidin-5-yl)(2-(trifluoromethyl)azetidin-1-yl)methanone], the IC50 is reported as 100 to 1000 nM.
